Values after ≈ are worked out from the molar mass of the structure shown. Like-named read-outs stand apart in the source and are kept apart here.
Key:
[1] = In vivo pharmacokinetic studies (Method H), plasma levels by LC-MS/MS; parameters: species or system male Sprague-Dawley rats; settings: rat; for Mean plasma concentration: as free drug
Procedure: Method H—In Vivo Pharmacokinetic Studies
In vivo experiments were conducted in male Sprague-Dawley rats having a body mass of 225 g to 275 g with an appropriate cannula surgically inserted. Rats were supplied food and water ad libitum until 12 hours before dosing when food was removed. Food was withheld until four hours post-dosing. Water was available ad libitum. Each of group of rats consisted of 3 rats.
Dosing solutions were prepared the same day as dose administration. […] The administered dose of each salt was 1 mg/kg for intravenous administration and 10 mg/kg for oral gavage. Formulations for intravenous administration were filtered after preparation. Concentrations of respective dosing solutions were as depicted in Table 1 below.
Sampling was performed at predose, 2, 5, 15, and 30 minutes, 1, 2, 4, and 8 hours post dose. Blood samples were collected, placed into chilled tubes containing sodium heparin, and kept chilled until centrifuged at 4° C. at 13,000 rpm for 5 minutes. Plasma was separated and stored at −60° C. to −80° C. until analyzed.
Plasma levels of the compounds were determined by LC-MS/MS. Quantification of the compounds in plasma was performed against a calibration curve generated by serial dilution of a test article DMSO stock solution into blank heparinized rat plasma (50, 100, 200, 500, 1,000, 2,000, 5,000, and 10,000 ng/mL final concentrations of free drug). Quality control samples were prepared in the same fashion (250, 1,000, and 5,000 ng/mL final concentrations of free drug). The standard curve and quality control DMSO stock solutions were derived from independent weightings.
Plasma concentrations versus time data are plotted in FIGS. 26 through 37.
All data are expressed as ng/mL of the free drug. Samples that were below the limit of quantification (“bloq”) were assigned a value of zero for the mean concentration calculations.

[2] = Solubility (Method B): solvent added in portions until a clear solution is obtained; assay type: physicochemical; settings: ambient temperature
Procedure: Method B-Solubility Measurement of the water solubility of the salts of this invention is accomplished by using methods well known to those skilled in the art. Specifically, to a weighed amount of DSB (+)-[…], DSB choline […], DSB diethanolamine […], or DSB diethylamine […], a solvent is added in small portions until a clear solution is obtained. The total volume of the solution is measured. The solubility of the particular DSB salt, in mg/mL, is calculated by dividing the weight of the salt (in mg), by the volume of the solution (in mL).

[3] = oral gavage 10 mg/kg, 0.083 h post dose
[4] = oral gavage 10 mg/kg, 0.25 h post dose
[5] = oral gavage 10 mg/kg, 0.5 h post dose
[6] = oral gavage 10 mg/kg, 1 h post dose
[7] = oral gavage 10 mg/kg, 2 h post dose
[8] = oral gavage 10 mg/kg, 4 h post dose
[9] = oral gavage 10 mg/kg, 8 h post dose
[10] = oral gavage 10 mg/kg, relative to DSB-2 NMG intravenous

Compound: bis-(+)-arginine salt of DSB [DSB-2 (+)-Arginine]
- Mean plasma concentration [1, 3]: 2003.3 ng/mL
- Mean plasma concentration [1, 4]: 6796.7 ng/mL
- Mean plasma concentration [1, 5]: 6140.0 ng/mL
- Mean plasma concentration [1, 6]: 5793.3 ng/mL
- Mean plasma concentration [1, 7]: 4590.0 ng/mL
- Mean plasma concentration [1, 8]: 1615.3 ng/mL
- Mean plasma concentration [1, 9]: 532.3 ng/mL
- AUC24 h ([1]; oral gavage 10 mg/kg, mean): 24342.9 ng·h/mL
- Cmax ([1]; oral gavage 10 mg/kg, mean): 7093.3 ng/mL
- Tmax ([1]; oral gavage 10 mg/kg, mean): 19.8 min
- % Bioavailability [1, 10]: 35.3%

Compound: C=C(C)[C@@H]1CC[C@]2(C(=O)O)CC[C@]3(C)[C@H](CC[C@@H]4[C@@]5(C)CC[C@H](OC(=O)CC(C)(C)C(=O)O)C(C)(C)[C@@H]5CC[C@]43C)[C@@H]12.CNC[C@H](O)[C@@H](O)[C@H](O)[C@H](O)CO.CNC[C@H](O)[C@@H](O)[C@H](O)[C@H](O)CO [DSB-2 NMG, reference compound]
- % Bioavailability ([1]; intravenous 1 mg/kg (reference)): 100.0%
- AUC24 h ([1]; intravenous 1 mg/kg, mean): 6890.6 ng·h/mL
- Cmax ([1]; intravenous 1 mg/kg, mean): 13785.9 ng/mL
- Tmax ([1]; intravenous 1 mg/kg, mean): 0 min
- Mean plasma concentration [1, 3]: 491.0 ng/mL
- Mean plasma concentration [1, 4]: 3706.7 ng/mL
- Mean plasma concentration [1, 5]: 3246.7 ng/mL
- Mean plasma concentration [1, 6]: 3236.7 ng/mL
- Mean plasma concentration [1, 7]: 1973.7 ng/mL
- Mean plasma concentration [1, 8]: 1662.3 ng/mL
- Mean plasma concentration [1, 9]: 635.7 ng/mL
- AUC24 h ([1]; oral gavage 10 mg/kg, mean): 18041.1 ng·h/mL
- Cmax ([1]; oral gavage 10 mg/kg, mean): 4480.0 ng/mL
- Tmax ([1]; oral gavage 10 mg/kg, mean): 96 min
- % Bioavailability [1, 10]: 26.2%

Compound: bis-choline salt of DSB [DSB-2 Choline]
- % Bioavailability ([1]; in vivo, 10 mg/kg): 30.3%
- AUC24 h ([1]; in vivo, po, 10 mg/kg): 20872.2 ng·h/mL

Compound: 3-O-(3′,3′-dimethylsuccinyl)betulinic acid, bis-diethylamine salt [DSB-2 Diethylamine]
- Mean plasma concentration [1, 3]: 352.7 ng/mL
- Mean plasma concentration [1, 4]: 4576.7 ng/mL
- Mean plasma concentration [1, 5]: 7420.0 ng/mL
- Mean plasma concentration [1, 6]: 6873.3 ng/mL
- Mean plasma concentration [1, 7]: 3750.0 ng/mL
- Mean plasma concentration [1, 8]: 1886.7 ng/mL
- Mean plasma concentration [1, 9]: 233.7 ng/mL
- AUC24 h ([1]; oral gavage 10 mg/kg, mean): 21172.3 ng·h/mL
- Cmax ([1]; oral gavage 10 mg/kg, mean): 7453.3 ng/mL
- Tmax ([1]; oral gavage 10 mg/kg, mean): 40.2 min
- % Bioavailability [1, 10]: 30.7%

Compound: C=C(C)[C@@H]1CC[C@]2(C(=O)O)CC[C@]3(C)[C@H](CC[C@@H]4[C@@]5(C)CC[C@H](OC(=O)CC(C)(C)C(=O)O)C(C)(C)[C@@H]5CC[C@]43C)[C@@H]12 [DSB Free Acid, 3-O-(3′,3′-dimethylsuccinyl)betulinic acid]
- solubility ([2]; 1-propanol, organic solvent or mixture, thermodynamic from solid, 1-propanol, read-out: Solubility in 1-propanol): 6000 µg/mL (≈ 10.3 mM)
- solubility ([2]; 2,2,2-trifluoroethanol, organic solvent or mixture, thermodynamic from solid, 2,2,2-trifluoroethanol, read-out: Solubility in 2,2,2-trifluoroethanol): 2500 µg/mL (≈ 4.27 mM)
- solubility ([2]; 2-propanol, organic solvent or mixture, thermodynamic from solid, 2-propanol, read-out: Solubility in 2-propanol): 6000 µg/mL (≈ 10.3 mM)
- solubility ([2]; ethanol, organic solvent or mixture, thermodynamic from solid, ethanol, read-out: Solubility in ethanol): 15000 µg/mL (≈ 25.6 mM)
- solubility ([2]; methanol, organic solvent or mixture, thermodynamic from solid, methanol, read-out: Solubility in methanol): 7500 µg/mL (≈ 12.8 mM)
- solubility ([2]; water, thermodynamic from solid, water, read-out: Solubility in water): 350 µg/mL (≈ 0.598 mM)

Compound: C=C(C)[C@@H]1CC[C@]2(C(=O)O)CC[C@]3(C)[C@H](CC[C@@H]4[C@@]5(C)CC[C@H](OC(=O)CC(C)(C)C(=O)O)C(C)(C)[C@@H]5CC[C@]43C)[C@@H]12.OCCNCCO.OCCNCCO [DSB-2 Diethanolamine, diethanolamine disalt of DSB]
- Mean plasma concentration [1, 3]: 880.7 ng/mL
- Mean plasma concentration [1, 4]: 5190.0 ng/mL
- Mean plasma concentration [1, 5]: 5743.3 ng/mL
- Mean plasma concentration [1, 6]: 5873.3 ng/mL
- Mean plasma concentration [1, 7]: 4730.0 ng/mL
- Mean plasma concentration [1, 8]: 1830.0 ng/mL
- Mean plasma concentration [1, 9]: 1149.3 ng/mL
- AUC24 h ([1]; oral gavage 10 mg/kg, mean): 30958.7 ng·h/mL
- Cmax ([1]; oral gavage 10 mg/kg, mean): 6720.0 ng/mL
- Tmax ([1]; oral gavage 10 mg/kg, mean): 72 min
- % Bioavailability [1, 10]: 44.9%
